Laboratory results: patent US11667675B2, “MASP inhibitory compounds and uses thereof” (Bayer Aktiengesellschaft, priority 2019, dated 2023)
Where two headings read alike, the source gives them in different places. Bridge positions count the residues as written; N and C are the ends. Square brackets hold non-standard residues; d marks the D form. Peptide text beside a SMILES is read from it. Pro(4-spirocPr) = O=C(O)[C@@H]1CC2(CC2)CN1; Oic = O=C(O)[C@@H]1C[C@@H]2CCCC[C@@H]2N1; tBuAla = CC(C)(C)C[C@H](N)C(=O)O; Pen = CC(C)(S)[C@H](N)C(=O)O; ΔPro = O=C(O)[C@@H]1C=CCN1; Sar = CNCC(=O)O

Tests used:
[1] = tested on: Human C3-[…]; assay: C3 deposition assay, human serum on mannan-coated plates; assay type: biochemical
Procedure: 3. C3 Deposition Assay (Human, Rat, Mouse, Dog, Mini-Pig)
The C3 deposition assay was conducted essentially as described (reference). Multi well plates (Greiner-Nunc 384 Maxi Sorp #464718) were coated over night with Mannan from Saccharomyces cerevisiae (Sigma M7504, 10 μg/mL in 0.05 M carbonate-bicarbonate buffer, pH 9.6) at 4° C. Wells were washed three times with TBS and subsequently incubated for 2 hours with 50 μL of 1% bovine serum albumin (BSA) in Tris-buffered saline (TBS) at 37° C. in order to block non-specific binding. After this step and each of the following incubation steps wells were washed three times with C3 wash buffer (TBS; 0.05% Tween 20; 5 mM CaCl2). […] When appropriately developed the color reaction was stopped by addition of 25 μL of stop solution (Sigma S5814) and quantified on a photometer by measuring absorption at a wavelength of 450 nm. Antibodies were diluted in C3 wash buffer supplemented with 0.5% BSA.

[2] = biological target: T1, human MASP2 (Homo sapiens, UniProt O00187); assay: Biochemical human MASP2 assay (FRET substrate); conditions: average IC50
T1 construct: Ig-kappa secretion signal (N, cleaved yes); made in house; host or cells: HEK293 (ATCC No. CRL-1573)
Description: (§1) 2.1 Recombinant Expression and Protein Production of Recombinant Human MASP1 and MASP2 Active Proteases.
(§2) The MASP1 or MASP2 expression vectors were transfected into the HEK293 (ATCC No. CRL-1573) cell line using Lipofectamine LTX® Reagent (Thermo-Fischer), as described by the manufacturer. […] The MASP1 and MASP2 proteins were purified from the conditioned media by affinity chromatography on Ni-NTA Superflow resin (Qiagen) as described by the manufacturer.
2.3 Biochemical Human MASP2 Assay
(§3) Recombinant human MASP2 enzyme produced in the HEK 293 cells was diluted in the reaction buffer (50 mM HEPES pH 8,0; 100 mM NaCl; 0.01% CHAPS; 0.5 mM Gluthathione) to the concentration of 20 nM and 25 μl was transferred into each single well of 384-well white microtiter plate (Greiner Bio One 781075). 1 μl of the inhibitor compound solution (dissolved in DMSO, at the corresponding concentration) or pure DMSO as a control was added to the same wells. […] The microtiter plate was incubated for 60-120 min at the temperature of 32 C. The increase of fluorescence intensity was measured in appropriate fluorescence plate reader (e.g. TECAN Ultra) using excitation wavelength of 340 nm and emission wavelength of 490 nm. IC50 values were calculated from percentage of inhibition of human MASP2 activity as a function of test compound concentration.

[3] = biological target: T2, human MASP1 (Homo sapiens, UniProt P48740); assay: Biochemical human MASP1 assay (FRET substrate); conditions: average IC50
T2 construct: Ig-kappa secretion signal (N, cleaved yes); made in house; host or cells: HEK293 (ATCC No. CRL-1573)
T2 sequence (P48740 297-448): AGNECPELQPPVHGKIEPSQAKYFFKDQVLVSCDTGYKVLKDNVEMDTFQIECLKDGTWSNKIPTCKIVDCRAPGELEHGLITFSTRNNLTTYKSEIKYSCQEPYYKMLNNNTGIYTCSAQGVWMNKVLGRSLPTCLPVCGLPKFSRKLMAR
T2 sequence (P48740 449-699): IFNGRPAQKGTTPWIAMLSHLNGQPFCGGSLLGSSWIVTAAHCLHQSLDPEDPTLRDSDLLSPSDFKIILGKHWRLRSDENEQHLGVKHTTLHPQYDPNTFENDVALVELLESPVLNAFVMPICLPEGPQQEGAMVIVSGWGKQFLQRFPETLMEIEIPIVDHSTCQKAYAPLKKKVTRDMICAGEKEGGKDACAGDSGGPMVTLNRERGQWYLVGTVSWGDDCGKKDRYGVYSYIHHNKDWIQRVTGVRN
Description: as §1, §2
2.2 Biochemical Human MASP1 Assay
as §3, with “MASP1” for “MASP2”, “320” for “340”, “420” for “490”

[4] = biological target: T3, rat MASP1 (Rattus norvegicus, UniProt Q8CHN8); assay: Biochemical rat MASP1 assay (FRET substrate); conditions: average IC50; recombinant rat MASP1, FRET substrate
T3 construct: Ig-kappa secretion signal (N, cleaved yes); made in house; host or cells: HEK293 (ATCC No. CRL-1573)
T3 sequence (Q8CHN8 302-453 limits assumed): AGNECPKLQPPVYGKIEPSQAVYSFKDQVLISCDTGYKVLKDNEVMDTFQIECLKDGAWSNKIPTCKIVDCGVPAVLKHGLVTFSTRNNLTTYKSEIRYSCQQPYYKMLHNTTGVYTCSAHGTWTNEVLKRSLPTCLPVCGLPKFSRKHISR
T3 sequence (Q8CHN8 454-704 limits assumed): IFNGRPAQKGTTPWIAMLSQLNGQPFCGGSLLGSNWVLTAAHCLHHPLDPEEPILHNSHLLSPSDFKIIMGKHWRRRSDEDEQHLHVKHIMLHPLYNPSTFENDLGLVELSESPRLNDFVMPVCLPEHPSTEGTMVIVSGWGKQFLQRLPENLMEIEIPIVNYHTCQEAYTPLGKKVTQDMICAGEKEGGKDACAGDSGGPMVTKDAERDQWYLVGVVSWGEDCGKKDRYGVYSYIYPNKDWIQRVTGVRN
Description: 4. Biochemical Rat MASP-1 and MASP-2 Assay
4.1 Recombinant Expression and Protein Production of Recombinant Human and Rat MASP1 and MASP2 Active Proteases.
A truncated cDNA sequence of rat MASP1 encoding the fragment corresponding to the amino acids 302-704 with an C-terminal His Tag and N-terminal Ig-kappa secretion signal (SEQ ID No: 4) was subcloned into the mammalian expression vector pcDNA3.1 (Invitrogen).
The MASP1 or MASP2 expression vectors were transfected into the HEK293 (ATCC No. CRL-1573) cell line using Lipofectamine LTX® Reagent (Thermo-Fischer), as described by the manufacturer. The mature form of the recombinant rat MASP1 and MASP2 proteases were secreted into the culture medium. The MASP1 and MASP2 proteins were purified from the conditioned media by affinity chromatography on Ni-NTA Superflow resin (Qiagen) as described by the manufacturer.
4.2 Biochemical Rat MASP1 Assay.
Recombinant rat MASP1 enzyme produced in the HEK 293 cells was diluted in the reaction buffer (50 mM HEPES pH 8,0; 100 mM NaCl; 0.01% CHAPS; 0.5 mM Gluthathione) to the concentration of 4 nM and 25 μl was transferred into each single well of 384-well white microtiter plate (Greiner Bio One 781075). 1 μl of the inhibitor compound solution (dissolved in DMSO, at the corresponding concentration) or pure DMSO as a control was added to the same wells. The enzymatic reaction was initiated by addition of 25 μl of 40 μM solution of the FRET substrate Dabcyl-[…]-Glu(Edans)-NH2 (SEQ ID NO: 8); (Dabcyl—4-((4-(dimethylamino)phenyl)azo)benzoic acid; Edans—5-[(2-Aminoethyl) amino]naphthalene-1-sulfonyl; custom synthesis by Jerini Peptide Technologies, Berlin) in the reaction buffer. The microtiter plate was incubated for 60-120 min at the temperature of 32 C. The increase of fluorescence intensity was measured in appropriate fluorescence plate reader (e.g. TECAN Ultra) using excitation wavelength of 340 nm and emission wavelength of 490 nm. IC50 values were calculated from percentage of inhibition of rat […] activity as a function of test compound concentration.

[5] = average IC50, read-out: Human C3-DEPOSITION SERUM IC50

T1 sequence (O00187 297-444): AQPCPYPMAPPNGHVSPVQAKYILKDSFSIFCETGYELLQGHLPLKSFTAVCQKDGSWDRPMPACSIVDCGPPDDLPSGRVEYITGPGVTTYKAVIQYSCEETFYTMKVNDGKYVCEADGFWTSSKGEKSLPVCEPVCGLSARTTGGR
T1 sequence (O00187 445-686): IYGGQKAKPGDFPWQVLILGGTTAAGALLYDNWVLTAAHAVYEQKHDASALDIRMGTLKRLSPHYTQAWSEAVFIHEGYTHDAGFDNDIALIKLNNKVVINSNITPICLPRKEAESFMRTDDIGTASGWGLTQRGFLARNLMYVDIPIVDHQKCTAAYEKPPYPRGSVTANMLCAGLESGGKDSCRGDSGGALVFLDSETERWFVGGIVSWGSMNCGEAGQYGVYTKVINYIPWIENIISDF

Compound	IC50 ([1]; average IC50, read-out: Human C3-[…] IC50)	IC50 [2]	IC50 [3]	IC50 [4]	IC50 [1, 5]
CC[C@H](C)[C@H](NC(=O)[C@@H]1CSSC[C@H](NC(=O)[C@@H](NC(=O)[C@@H](N)C2CCOCC2)[C@@H](C)CC)C(=O)N[C@@H](CO)C(=O)N[C@@H](CCCNC(=N)N)C(=O)N[C@@H](CO)C(=O)N[C@@H](CC(C)C)C(=O)N2CCC[C@H]2C(=O)N2[C@@H](C[C@@H]3CCCC[C@@H]32)C(=O)N[C@@H]([C@@H](C)CC)C(=O)N1)C(=O)O (single isomer, unassigned) [Example 184]	0.043 µM	0.2 µM	0.0047 µM		
CC[C@H](C)[C@H](NC(=O)[C@H](C)N)C(=O)N[C@H]1CSSC(C)(C)[C@@H](C(=O)N[C@H](C(=O)N2CCC[C@H]2C(=O)N[C@@H](CC(=O)O)C(N)=O)[C@@H](C)CC)NC(=O)[C@H]([C@@H](C)CC)NC(=O)[C@@H]2CC3(CC3)CN2C(=O)[C@@H]2CCCN2C(=O)[C@H](CC(C)(C)C)NC(=O)[C@H](CO)NC(=O)[C@H](CCCNC(=N)N)NC(=O)[C@H](CO)NC1=O [Example 45, AI-C+SRS-((tBu)A)-P-((6S)-5-Azaspiro[2.4]heptane-6-carboxylic acid)-I(Pen)+IPD-NH2] (H-AICSRS[tBuAla]P[Pro(4-spirocPr)]I[Pen]IPD-NH2; disulfide 3-11)		0.0245 µM	0.00183 µM	0.04 µM	0.0186 µM
CC[C@H](C)[C@@H]1NC(=O)[C@@H]2CCCN2C(=O)[C@@H]2CCCN2C(=O)[C@H](CC(C)(C)C)NC(=O)[C@H](CO)NC(=O)[C@H](CCCNC(=N)N)NC(=O)[C@H](CO)NC(=O)[C@@H](NC(=O)[C@@H](NC(=O)C(C)(C)CN)[C@@H](C)CC)CSSC(C)(C)[C@@H](C(=O)N[C@H](C(=O)N2CCC[C@H]2C(=O)N[C@@H](CC(=O)O)C(N)=O)[C@@H](C)CC)NC1=O [Example 166, (3-Amino-2,2-dimethylpropionic acid)-IC+SRS-((tBu)A)-PPI-(Pen)+IPD-NH2]			0.0042 µM		0.0334 µM
CC[C@H](C)[C@H](NC(=O)[C@H](C)N)C(=O)N[C@H]1CSSC(C)(C)[C@@H](C(=O)N[C@H](C(=O)N2CCC[C@H]2C(=O)N[C@@H](CC(=O)O)C(=O)O)[C@@H](C)CC)NC(=O)[C@H]([C@@H](C)CC)NC(=O)[C@@H]2C[C@@H]3CCCC[C@@H]3N2C(=O)[C@@H]2C=CCN2C(=O)[C@H](CC(C)C)NC(=O)[C@H](CO)NC(=O)[C@H](CCCNC(=N)N)NC(=O)[C@H](CO)NC1=O [Example 237] (H-AICSRSL[ΔPro][Oic]I[Pen]IPD-OH; disulfide 3-11)		0.064 µM	0.0093 µM		0.0147 µM
CC[C@H](C)[C@H](NC(=O)CNC)C(=O)N[C@H]1CSSC(C)(C)[C@@H](C(=O)N[C@H](C(=O)N2CCC[C@H]2C(N)=O)[C@@H](C)CC)NC(=O)[C@H]([C@@H](C)CC)NC(=O)[C@@H]2C[C@@H]3CCCC[C@@H]3N2C(=O)[C@@H]2CCCN2C(=O)[C@H](CC(C)C)NC(=O)[C@H](CO)NC(=O)[C@H](CCCNC(=N)N)NC(=O)[C@H](CO)NC1=O [Example 376] (H-[Sar]ICSRSLP[Oic]I[Pen]IP-NH2; disulfide 3-11)		0.035 µM	0.0011 µM		0.0138 µM
(2-Hydroxyacetyl)-IC+SRS-((tBu)A)-PPI-(Pen)+IPD-NH2 [Example 300]					0.0598 µM
((N-Me)G)-IC+SRSLP-(Oic)-I-(Pen)+I-((5-Azaspiro[2.4]heptane-1-carboxylic acid)OH [Example 164]					0.0816 µM
((N-Me)G)-IC+SRSLP-(Oic)-I-(Pen)+IPD-NH2 [Example 165]					0.036 µM
AIC+SRS-((tBu)A)-PPI-((N-Me)C)+IPD-NH2 (HCl Salt) [Example 30]					0.0361 µM
AIC+SRSLP-(Oic)-I-(Pen)+IPN-OH [Example 418]					0.0539 µM
IC+SRSLP-(Oic)-I-(Pen)+IPD-OH [Example 347]					0.151 µM
N-[(5aS,11S,14S,17S,20S,23R,28R,31S,33aS)-31-[(2S)-butan-2-yl]-17-(3-carbamimidamidopropyl)-11-(2,2-dimethylpropyl)-14,20-bis(hydroxymethyl)-27,27-dimethyl-23-({N-[(morpholin-4-yl)acetyl]-L-isoleucyl}amino)-5,10,13,16,19,22,30,33-octaoxooctacosahydro-1H,5H,10H-dipyrrolo[2,1-j:2′,1′][1,2,5,8,11,14,17,20,23,26]dithiaoctaazacyclononacosine-28-carbonyl]-L-isoleucyl-L-prolyl-L-alpha-asparagine [Example 283]					0.0698 µM
